In patent publication US20060134774A1, “Detection of protease enzymes” (Marligen Biosciences, Inc., priority 2002, published 2006):

How the values were obtained:
Format in all cases: cell-based
caspase-3 [1] = molecular target: T1, caspase-3 (Homo sapiens, UniProt P42574); experiment: Single-plex assay for active caspase-3 (bead capture of caspase-3/biotin-DEVD-FMK complex from treated cells); details: human myeloma cell line KAS, 8 hours, 5 uM camptothecin with 1 uM biotin-DEVD-FMK, vs. culture with inhibitor only
T1 construct: endogenous in cells; host or cells: human myeloma cell line KAS
T1 sequence (P42574 29-175 limits assumed): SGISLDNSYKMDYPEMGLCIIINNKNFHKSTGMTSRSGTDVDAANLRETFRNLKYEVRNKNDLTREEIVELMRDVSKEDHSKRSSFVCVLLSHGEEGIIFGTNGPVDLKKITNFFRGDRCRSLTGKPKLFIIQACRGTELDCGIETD
T1 sequence (P42574 176-277 limits assumed): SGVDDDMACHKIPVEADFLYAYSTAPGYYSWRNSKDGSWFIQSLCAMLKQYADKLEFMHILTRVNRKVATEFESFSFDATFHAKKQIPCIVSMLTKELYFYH
Experimental: Preparation of Amine-Reactive Beads
Luminex beads were dispersed by vortexing for 15 seconds followed by sonication in a water bath for 2 minutes. To wash, beads were pelleted by centrifugation for 2 minutes at 12,000×g in a microcentrifuge and then resuspended in 100 ul of water. Beads were pelleted again, resuspended in 80 ul of activation buffer (100 mM sodium phosphate, monobasic pH 6.3), vortexed briefly and sonicated for 30 seconds. Reactive n-hydroxysuccinimide (NHS) esters on the bead surface were prepared by adding 10 ul of 50 mg/ml Sulfo-NHS solution (Pierce, Rockland, Ill.) and 10 ul of 50 mg/ml 1-Ethyl-3-[3-dimethylaminopropyl]carbodiimide Hydrochloride (EDC) to the bead suspension, briefly vortexing, and rotating for 20 minutes in the dark. […]
Human myeloma cell line KAS was cultured in RPMI+10% FBS at 37° C. in the presence of 5% CO2. […] After three washes, the cell pellet was vortexed in lysis buffer containing 50 mM Tris-HCl pH 7.5, 150 mM NaCl, 1 mM EDTA, 0.5% NP40, 0.5% Triton X-100 and protease inhibitors (5 ug/ml leupeptin, 2 ug/ml pepstatin A, 1 mM PMSF (phenyl methyl sulfonyl […]). Lysates were stored overnight at −80° C., thawed on ice, vortexed, and spun at 4° C. for 1 hour at 12,000×g in a micro-centrifuge. Protein concentrations in the cleared supernatants were determined spectrophotometrically using Bradford reagent prior to storage at −80° C. […]

caspase-3 [2] = molecular target: T1, caspase-3; experiment: Multiplex caspase assay (antibody-coated bead array), caspase-3; details: myeloma cell line Kas, 8 hours camptothecin + biotin-DEVD-FMK vs. biotin-DEVD-FMK alone
Experimental: (§1) Using the method described in example 1 above Luminex bead sets (colors) 27, 29, and 31 are coupled to antibodies for caspase-3, caspase-7, and caspase 9 respectively. Immediately before using, beads are vortexed for 30 seconds and sonicated for 2 minutes to disperse. Beads are then mixed to provide a 1000 bead/ul (each color) suspension with equivalent representation of each bead set. Cell lysate was prepared from myeloma cell line Kas as describe in example 1. One culture was treated with biotinylated caspase inhibitor biotin-DEVD-FMK for 8 hours and a second culture was treated for 8 hours with the apoptosis inducer camptothecin and biotinylated caspase inhibitor, biotin-DEVD-FMK. A portion of the multiplex bead suspension (2 ul) was incubated with 50 ul of each sample of cell extract diluted to 10 ug/ml in assay buffer (50 mM Tris pH 7.5, 100 mM NaCl, 0.05% tween-20 and 0.1% BSA). Following a 1 hour incubation while shaking in the dark, beads are washed with 100 ul of assay buffer using a filterplate comprising a 1.2 micron PVDF membrane (Millipore). Beads are resuspended in 50 ul of assay buffer containing 2 ug/ml streptavidin-PE conjugate (Pierce) and shaken in the dark for an additional 30 minutes. […] The presence of labeled caspase enzymes on bead surfaces was detected using the Luminex 100 instrumentation. […]

caspase-7 [3] = molecular target: T2, caspase-7 (Homo sapiens, UniProt P55210); experiment: Multiplex caspase assay (antibody-coated bead array), caspase-7; details: myeloma cell line Kas, 8 hours camptothecin + biotin-DEVD-FMK vs. biotin-DEVD-FMK alone
T2 construct: endogenous in cells; host or cells: human myeloma cell line KAS
T2 sequence (P55210 24-198 limits assumed): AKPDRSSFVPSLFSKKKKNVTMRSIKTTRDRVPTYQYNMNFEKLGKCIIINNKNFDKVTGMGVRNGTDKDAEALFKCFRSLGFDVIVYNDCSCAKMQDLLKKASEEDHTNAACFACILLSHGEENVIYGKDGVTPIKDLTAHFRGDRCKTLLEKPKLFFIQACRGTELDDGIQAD
T2 sequence (P55210 207-303 limits assumed): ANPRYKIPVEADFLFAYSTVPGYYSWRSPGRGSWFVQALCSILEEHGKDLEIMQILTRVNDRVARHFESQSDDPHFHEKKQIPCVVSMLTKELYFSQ
Experimental: as §1

caspase 9 [4] = molecular target: T3, caspase 9 (Homo sapiens, UniProt P55211); experiment: Multiplex caspase assay (antibody-coated bead array), caspase 9; details: myeloma cell line Kas, 8 hours camptothecin + biotin-DEVD-FMK vs. biotin-DEVD-FMK alone
T3 construct: endogenous in cells; host or cells: human myeloma cell line KAS
T3 sequence (P55211 1-416): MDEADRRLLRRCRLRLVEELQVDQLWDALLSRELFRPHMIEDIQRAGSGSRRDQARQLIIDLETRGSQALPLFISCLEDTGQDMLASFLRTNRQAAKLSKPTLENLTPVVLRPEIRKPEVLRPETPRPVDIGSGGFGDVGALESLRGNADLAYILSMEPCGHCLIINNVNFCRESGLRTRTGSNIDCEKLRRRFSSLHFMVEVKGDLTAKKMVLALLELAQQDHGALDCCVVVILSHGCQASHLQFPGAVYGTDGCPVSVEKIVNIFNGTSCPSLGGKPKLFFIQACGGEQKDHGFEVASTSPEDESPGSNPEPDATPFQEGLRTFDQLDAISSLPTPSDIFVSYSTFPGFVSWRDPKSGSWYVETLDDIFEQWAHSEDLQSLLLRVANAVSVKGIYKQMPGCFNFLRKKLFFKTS
Experimental: as §1

caspase-3 [5] = molecular target: T1, caspase-3; experiment: Competitive multiplex inhibitor assay, caspase-3; details: myeloma cell line Kas, 8 hours camptothecin + biotin-DEVD-FMK
Text: (§2) In another aspect of the invention a labeled inhibitor and a non-labeled inhibitor are both added to the sample. The non-labeled inhibitor competes with the labeled inhibitor for binding to proteases. With this mode of the invention, new inhibitors may be screened for specificity and the binding constants of new inhibitors may be determined by determining the amount of unlabeled inhibitor necessary to reduce the binding of the labeled inhibitor by a certain amount. Using the methods described in example 2 above Luminex bead sets (colors) 27, 29, and 31 are coupled to antibodies for caspase-3, caspase-7, and caspase 9 respectively. Immediately before using, beads are vortexed for 30 seconds and sonicated for 2 minutes to disperse. Beads are then mixed to provide a 1000 bead/ul (each color) suspension with equivalent representation of each bead set. Cell lysate is prepared from the myeloma cell line Kas as described in Example 1 with the exception that an additional portion of cells is treated for 8 hours with camptothecin, the biotinylated caspase inhibitor biotin-DEVD-FMK and an equal amount of an experimental caspase inhibitor called Mx435. The MX435 inhibitor is not labeled with biotin, and therefore, it competes with the labeled inhibitor for binding to each caspase. […] The presence of labeled caspase enzymes on bead surfaces is detected using the Luminex 100 instrumentation. […]

caspase-7 [6] = molecular target: T2, caspase-7; experiment: Competitive multiplex inhibitor assay, caspase-7; details: myeloma cell line Kas, 8 hours camptothecin + biotin-DEVD-FMK
Text: as §2

caspase 9 [7] = molecular target: T3, caspase 9; experiment: Competitive multiplex inhibitor assay, caspase 9; details: myeloma cell line Kas, 8 hours camptothecin + biotin-DEVD-FMK
Text: as §2

CC[C@@]1(O)C(=O)OCc2c1cc1n(c2=O)Cc2cc3ccccc3nc2-1 [camptothecin]
caspase 3 activity: signal of biotin-labeled inhibitor bound to captured caspase 3 (FIG. 10) (caspase-3 [1]): induced | induction of caspase 3 activity (median fluorescent intensity, FIG. 11) (caspase-3 [2]): induced the most | induction of caspase 7 activity (median fluorescent intensity, FIG. 11) (caspase-7 [3]): induced | induction of caspase 9 activity (median fluorescent intensity, FIG. 11) (caspase 9 [4]): induced the least | induction of caspase 3 activity by camptothecin (median fluorescent intensity, FIG. 12) (caspase-3 [5]): induced | induction of caspase 7 activity by camptothecin (median fluorescent intensity, FIG. 12) (caspase-7 [6]): induced | induction of caspase 9 activity by camptothecin (median fluorescent intensity, FIG. 12) (caspase 9 [7]): induced
